From patent US6391344B2, “Method of promoting synthesis of nerve growth factor” (Nagase & Company, Ltd., priority 1999, dated 2002) come the findings set out here.

The test system of this assay is Human glioblastoma cells (T98G, Cell line). Description: Promotion of NGF synthesis: NGF content in culture supernatant by enzyme immunoassay. In kind it is cell-based. The conditions noted are these: for NGF Content in sample solution / content of NGF in the sample solution as compared with the systems not containing any effective ingredient: T98G cells; for NGF Content in sample solution: 4 days cultivation, mean ± standard deviation; for Relative NGF content: ratio of example solution to comparative example solution; for content of NGF in the sample solution as compared with the systems not containing any effective ingredient: result in words, both tested concentrations. The method, then:
Human glioblastoma cells (T98G, Cell line) were seeded in a MEM medium containing fetal bovine serum (10%; Gibco), sodium pyruvate (×1; Gibco) and nonessential amino acids (×1; Gibco) in wells of a flat-bottom 96-well plate (Corning), in a cell density of 2×10^4/well, and cultivated in a CO2 incubator (37° C., 5% CO2) for 3 days. The medium was then replaced by an Opti-MEM medium (containing 5 mg/ml of bovine serum albumin). The cultivation was continued for further 6 days with replacing the medium at intervals of 3 days.
[…] After the cultivation, the supernatant was taken as a sample solution.
On the other hand, 1 ug/ml of an anti-NGF antibody (Promega) solution (50 ul) was added to each well of a 96-well microplate (Nunc), and the plate was allowed to stand overnight at 4° C. After washing the plate with PBS(−) (Nissui Pharmaceuticals), 1% of a bovine serum albumin (Sigma) solution (100 ul) was added to each well of the plate and the plate was allowed to stand at room temperature for 4 hrs. Subsequently, the plate was washed with PBS (−) and the above sample solution (50 ul) was added to each well of the plate. After the reaction at room temperature for one hour, the plate was washed with PBS (−).
Subsequently, 0.4 unit/ml of an beta-galactosidase-labeled anti-NGF antibody (Boehringer Mannheim) solution (50 ul) was added to each well of the plate, and allowed to react at room temperature for one hour. After washing the plate with PBS (−), 0.5 mg/ml of a 4-methylumbelliferyl-beta-D-galactoside solution (200 ul) was added to each well of the plate, and allowed to react overnight at room temperature. The fluorescence intensity of 4-methylumbelliferone produced was measured on a fluorescence plate reader, and the content of NGF contained in the sample solution was determined using a standard curve obtained from a standard solution (human beta-NGF; PEPRO TECH EC).

The mark [1] stands for this setting: 20 uM effective ingredient in medium.
Setting [2] is: 100 uM effective ingredient in medium.

On to `CC(C)c1cc2c(c(O)c1O)[C@@]1(C(=O)O)CCCC(C)(C)C1CC2` (stereo partly shown) [Carnosic acid of formula (I), carnosic acid], for which the “NGF Content in sample solution” value runs as follows: under setting [1], 46.0 ± 7.4 pg/mL; under setting [2], 158.5 ± 16.6 pg/mL. Moreover, the “Relative NGF content” value under setting [1] worked out at 7.2 and the “Relative NGF content” value under setting [2] came to 24.8.

As to `CC(C)c1cc2c(c(O)c1O)[C@@]13CCCC(C)(C)C1C[C@@H]2OC3=O` (stereo partly shown) [Carnosol of formula (II), carnosol], under setting [1], the “NGF Content in sample solution” value stood at 35.4 ± 6.9 pg/mL and the “Relative NGF content” value was 5.5. Also, under setting [2], the “NGF Content in sample solution” value was 39.9 ± 2.3 pg/mL and the “Relative NGF content” value came to 6.2.

As to `CC(C)c1cc2c(c(O)c1O)[C@@]1(C(=O)O)CCCC(C)(C)[C@@H]1CC2` [carnosic acid of the formula (I)], the “content of NGF in the sample solution as compared with the systems not containing any effective ingredient” value is “increases”.

In the case of `CC(C)c1cc2c(c(O)c1O)[C@@]13CCCC(C)(C)[C@@H]1C[C@@H]2OC3=O` [carnosol of the formula (II)], the “content of NGF in the sample solution as compared with the systems not containing any effective ingredient” value was “increases”.
